Columns and labels:
Assay type in all cases: cell-based
endogenous Ube2G2 = target: T1, endogenous Ube2G2 (Homo sapiens, UniProt P60604); experiment: Co-immunoprecipitation of endogenous Ube2G2 with GFP fusions in HEK 293T cells; details: anti-GFP IP
T1 construct: endogenous in cells; host or cells: HEK 293T
T1 sequence (P60604 1-165): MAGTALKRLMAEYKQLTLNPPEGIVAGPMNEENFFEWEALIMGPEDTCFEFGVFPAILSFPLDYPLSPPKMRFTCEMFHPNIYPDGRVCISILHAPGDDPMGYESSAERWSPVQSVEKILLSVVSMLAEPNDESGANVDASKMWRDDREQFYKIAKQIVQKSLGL
Experimental: (§1) Transfections of HT1080, NIH 3T3 and HEK 293T cells were carried out ˜24 hr after plating using Polyfect (Qiagen, Valencia, Calif.) and cells harvested after ˜48 hr. J558 cells were transfected by electroporation using Bio-rad GENE pulser II at settings of 250 v, 950uF. Vector without insert was used to equalize total plasmid. In most experiments 0.15 μg of pEGFP-C1 served as an internal control. For experiments not involving immunoprecipitation, 6×10^5 cells were plated in 6 well plates and cell lysis was with Mammalian Protein Extraction Reagent (Pierce). […] Supernatants were analyzed after a 10,000×g centrifugation using standard techniques for immunoprecipitation, SDS-PAGE, immunoblotting and ECL. […]
(§2) FIG. 6 depicts the specific binding of gp78 residues 574-611 (of SEQ ID NO:2) to endogenous Ube2G2 in HEK 293T cells. Cells were transfected with plasmids encoding GFP fusions of the indicated regions of gp78, and co-immunoprecipitation was evaluated. […]
(§3) To determine the specificity of E2 binding in cells, GFP fusions encompassing the E2 binding region were expressed in cells, and co-immunoprecipitation of endogenous E2 was tested using antibodies raised specifically against Ube2g1, Ube2G2 and UbcH5B (FIG. 19B). […] In contrast, and consistent with the in vitro binding data in FIG. 18, no association with endogenous UbcH5B or Ube2g1 was detected (FIG. 19B third and fourth panels, left). […]

endogenous Ube2g1 = target: T2, endogenous Ube2g1 (Homo sapiens, UniProt P62253); experiment: Co-immunoprecipitation of endogenous Ube2G1 with GFP fusions in HEK 293T cells; details: anti-GFP IP
T2 construct: endogenous in cells; host or cells: HEK 293T
T2 sequence (P62253 1-170): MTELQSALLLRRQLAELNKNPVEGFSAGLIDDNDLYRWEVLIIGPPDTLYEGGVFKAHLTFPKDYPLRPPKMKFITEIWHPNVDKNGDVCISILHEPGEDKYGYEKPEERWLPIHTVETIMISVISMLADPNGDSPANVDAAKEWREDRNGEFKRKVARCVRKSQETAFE
Experimental: as §1, §2, §3

endogenous UbcH5B = target: T3, endogenous UbcH5B (Homo sapiens, UniProt P62837); experiment: Co-immunoprecipitation of endogenous UbcH5B with GFP fusions in HEK 293T cells; details: anti-GFP IP
T3 construct: endogenous in cells; host or cells: HEK 293T
T3 sequence (P62837 whole entry, the tested form may be a part): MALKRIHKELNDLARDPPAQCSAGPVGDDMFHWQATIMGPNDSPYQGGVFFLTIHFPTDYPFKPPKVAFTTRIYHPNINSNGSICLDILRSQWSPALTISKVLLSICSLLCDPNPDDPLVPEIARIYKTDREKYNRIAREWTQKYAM
Experimental: as §1, §2, §3

ERAD substrate CD3-δ = experiment: CD3-δ level in co-transfected cells by immunoblotting; details: co-transfection with CD3-δ, immunoblot
Experimental: (§4) Transfections of HT1080, NIH 3T3 and HEK 293T cells were carried out ˜24 hr after plating using Polyfect (Qiagen, Valencia, Calif.) and cells harvested after ˜48 hr. J558 cells were transfected by electroporation using Bio-rad GENE pulser II at settings of 250 v, 950uF. Vector without insert was used to equalize total plasmid. In most experiments 0.15 μg of pEGFP-C1 served as an internal control. For experiments not involving immunoprecipitation, 6×10^5 cells were plated in 6 well plates and cell lysis was with Mammalian Protein Extraction Reagent (Pierce). For immunoprecipitation, 2.4×10^6 cells were seeded in 100 mm dishes and cells were lysed in RIPA buffer (1×PBS, 1% Nonidet P40. 0.5% sodium deoxycholate, 0.1% SDS). Lysis buffers were supplemented with Protease Inhibitor Cocktail (Sigma) and 10 mM iodoacetamide. Supernatants were analyzed after a 10,000×g centrifugation using standard techniques for immunoprecipitation, SDS-PAGE, immunoblotting and ECL. Treatment of cells with MG132 (Sigma) was at 50 μM for eight hr. Cycloheximnide was used at 50 μg/ml. All cells were collected at the end of the six hr chase.
FIG. 7 depicts the stabilization of CD3-δ protein in cells transfected with the G2BD, but not with the G2BD with amino acids 579-584 (of SEQ ID NO:2) mutated. HEK 293T cells were transfected with the ERAD substrate CD3-δ along with the indicated GFP fusions of gp78. The left and right sides are two separate experiments.
(§5) To test this, GFP fusions of either a minimal E2 binding domain (GFP-574-611) or a more extended region that includes the C-terminus of gp78 (GFP-574-643) were evaluated (FIG. 21A). […] To assess this further, the C-terminal region of gp78 was fused to the eight amino acid Flag tag. […] Mdm2 is a RING finger E3 for both itself and p53 that is neither an ERAD substrate nor known to utilize Ube2G2 as an E2. […] To establish with certainty that the effect observed with expression of the Ube2G2 binding site is a consequence of binding endogenous E2, and not due to other unanticipated effects, cells were co-transfected with increasing amounts of Ube2G2 (FIG. 21C, lanes 3 and 4). […] These findings clearly establish that the isolated E2 binding site has the potential to markedly alter ERAD of CD3-δ. To ensure the effect observed was not peculiar to one substrate, TCR-α was evaluated (FIG. 21D).

ERAD substrate TCR-α = experiment: TCR-α level in co-transfected cells; details: co-transfection with TCR-α
Experimental: as §4
FIG. 9 depicts the stabilization of endogenous TCRα by the G2BD. TCR-α is a subunit of the T cell antigent receptor and an ERAD substrate. TCR-α was stabilized by the region implicated in Ube2G2 binding.
as §5

NIH 3T3 cells [1] = experiment: UPR markers in NIH 3T3 cells expressing GFP fusions
Experimental: as §4
(§6) Similarly, an increase in phospho-eIF2α, which attenuates translation and is activated by PERK, was also observed. […] An effective UPR ultimately requires an increase in ERAD. However, the ectopic expression of the Ube2G2 binding site should create a block specifically at this point.

J558 cells [2] = experiment: UPR markers in J558 myeloma cells expressing GFP fusions
Experimental: as §4
(§7) 24 hr after transfection with constructs encoding GFP or GFP fusion proteins, cells were stained with annexin V-PE (BD Pharmingen) and analyzed on a Beckman coulter XL. Data for J558 was average of three experiments, NIH 3T3 was from 2 experiments. Gates were set to analyze cells expressing GFP using 525 band-pass filter and evaluated for annexin V-PE staining using a 575 band-pass filter. To isolate cells expressing GFP, J558 cells were harvested 24 hr after transfection and sorted on a BD FACS Aria. Transfection efficiencies were 7-10%. 2×10^4 cells expressing GFP fusions were isolated.
Cells with active secretory pathways, such as myeloma, might be predicted to be particularly susceptible to ER stress. […] As with NIH 3T3 cells, expression of the Ube2G2 binding site in the well characterized myeloma cell line J558 led to increases in BiP and phospho-eIF2α.

J558 cells [3] = experiment: Annexin V staining by flow cytometry in J558 cells; details: 24 hours after transfection, vs GFP574-611E2-m2 or GFP alone
Description: as §7
(§8) This was verified by a rapid loss of GFP immunoreactivity from cells expressing GFP574-611 (FIG. 7C). To confirm that this is a consequence of apoptosis, cells were evaluated by flow cytometry 24 hours after transfection. This early point was chosen, as by 48 hours few cells expressing the GFP574-611 could be discerned microscopically. […] Thus, the isolated Ube2G2 binding site of gp78 initiates an UPR in cells and a program leading to apoptotic cell death preferentially in myeloma cells.

NIH 3T3 cells [4] = experiment: Annexin V staining by flow cytometry in NIH 3T3 cells; details: 24 hours after transfection
Description: as §7, §8

[5] = system: HEK 293T cells or NIH 3T3 cells; experiment: Cell death by microscopy in HEK 293T or NIH 3T3 cells
Description: as §6

[6] = system: human multiple myeloma cells; experiment: Ube2G2 binding site expression in human myeloma
HeLA, U20S and HT1080 = experiment: Cell death in epithelial cancer and sarcoma cell lines
Description: as §6

J558 cells [7] = experiment: Loss of J558 cells expressing GFP fusions by microscopy; details: relative to GFP574-611E2-m2
Experimental: as §8

GFP-574-611: N-terminal GFP fusion of gp78 residues 574-611, a minimal E2 binding domain (SADERQRMLVQRKDELLQQARKRFLNKSSEDDAASESF; listed as Homo sapiens)
co-immunoprecipitation of endogenous Ube2G2 (endogenous Ube2G2): sufficient to co-immunoprecipitate endogenous Ube2G2 | co-immunoprecipitation of endogenous Ube2G1 (endogenous Ube2g1): not co-immunoprecipitated | co-immunoprecipitation of endogenous UbcH5B (endogenous UbcH5B): not co-immunoprecipitated | effect on CD3-δ level (stabilization) (ERAD substrate CD3-δ): dramatically stabilized CD3-δ | effect on CD3-δ level (stabilization) (ERAD substrate CD3-δ; listed as 574-611): sufficient to stabilize CD3-δ | effect on TCR-α level (stabilization) (ERAD substrate TCR-α; listed as G2BD): stabilized | effect on TCR-α level (stabilization) (ERAD substrate TCR-α; listed as Ube2G2 binding site): markedly stabilized TCR-α | CHOP accumulation (NIH 3T3 cells [1]): no accumulation | ER chaperone BiP level (NIH 3T3 cells [1]): increase | phospho-eIF2α level (NIH 3T3 cells [1]): increase | total eIF2α level (NIH 3T3 cells [1]): not significantly altered | loss of GFP fusion relative to mutant form (NIH 3T3 cells [1]; GFP immunoblot): nor was there any discernable loss | BiP level (J558 cells [2]): increases | CHOP level (J558 cells [2]): marked increase | GFP immunoreactivity over time (J558 cells [2]): rapid loss | phospho-eIF2α level (J558 cells [2]): increases | annexin V staining (apoptosis marker) (J558 cells [3]): dramatic increase | annexin V staining (apoptosis marker) (NIH 3T3 cells [4]): No significant increase | cell death by microscopy [5]: no microscopic evidence of increased cell death | apoptosis in human myelomas [6]: leads to apoptosis | cell death (HeLA, U20S and HT1080): lack of increased cell death | loss of cells expressing the GFP fusion, by microscopy (J558 cells [7]): differential loss
